The results in this text go back to patent US20240417410A1, “TRICYCLIC COMPOUNDS FOR THE TREATMENT OF CANCER” (Hoffmann-La Roche Inc., priority 2023, published 2024).

SMILES strings stand for the structures. pIC50: −log10 of the molar value.

One test concerns the target KRAS G12C-BRAF complex (Homo sapiens (Human), UniProt P01116+P62937, G12C). Put plainly: KRAS-BRAF with CYPA (500 nM) interaction assay (TR-FRET, Example 136). The test is classed as biochemical. The conditions noted are these: KRAS G12C-BRAF disruption. In general terms: Time-resolved FRET reads energy transfer from a long-lived donor to a nearby acceptor.
The subject of test [1] is phosphorylation of ERK, KRAS G12V in SW620. Put plainly: pERK inhibition assay. The test is classed as cell-based. The settings on record: Homo sapiens, SW-620, 4 h, SW620 cells. In short, it runs like this: (§1)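 Cells in RPMI-1640 with 10% FBS were plated overnight (30,000/well H358, 20,000 AGS, 30,000 SW620) and treated 4 h with compounds at 0.5% DMSO. After formaldehyde fixation and methanol permeabilization, pERK was detected by in-cell ELISA with HRP secondary and TMB (OD450); IC50 from 4-parameter fit.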

Test [2] concerns phosphorylation of ERK, KRAS G12C in NCI-H358 cells. Description: pERK inhibition assay. The test is classed as cell-based. The settings on record: Homo sapiens, NCI-H358, 4 h. The procedure, abridged: as §1
The test system of test [3] is phosphorylation of ERK, KRAS G12D in AGS cells. Put plainly: pERK inhibition assay. The test is classed as cell-based. The settings on record: Homo sapiens, AGS, 4 h. In short, it runs like this: as §1
Test [4] deals with NCI-H358 cells (KRAS G12C). Description: Cell viability assay (Cell Counting Kit-8, 3-day). The conditions noted are these: Homo sapiens, NCI-H358, 72 h, NCI-H358, 72 hrs incubation. The test is classed as cell-based, human. In short, it runs like this: (§2)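 72-hr compound treatment, 0.5% DMSO final; NCI-H358 seeded 5,000 cells/well, AGS and SW620 2,000 cells/well. Endpoint: CCK-8, 2-hr development, OD450 minus OD650.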

The next test has as its system AGS cells (KRAS G12D). Description: Cell viability assay (Cell Counting Kit-8, 3-day). The test is classed as cell-based, human. The conditions noted are these: Homo sapiens, 72 h, 72 hrs incubation. The procedure, abridged:
as §2
(Formazan colour is commonly taken as a measure of viable cells.)

The test system of a further test is SW620 cells (KRAS G12V). Put plainly: Cell viability assay (Cell Counting Kit-8, 3-day). The test is classed as cell-based, human. The settings on record: Homo sapiens, SW-620; SW620, 72 hrs incubation. The procedure, abridged: as §2

Chain of KRAS G12C-BRAF complex (P01116-2 other isoform, or with tags, fused parts or gaps G12C): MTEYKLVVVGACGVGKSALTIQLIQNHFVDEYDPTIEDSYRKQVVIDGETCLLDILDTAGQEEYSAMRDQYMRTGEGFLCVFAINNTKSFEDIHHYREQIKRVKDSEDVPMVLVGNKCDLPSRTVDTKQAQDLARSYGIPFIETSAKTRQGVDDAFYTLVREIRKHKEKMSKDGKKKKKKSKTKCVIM
Chain of KRAS G12C-BRAF complex (P62937 whole entry): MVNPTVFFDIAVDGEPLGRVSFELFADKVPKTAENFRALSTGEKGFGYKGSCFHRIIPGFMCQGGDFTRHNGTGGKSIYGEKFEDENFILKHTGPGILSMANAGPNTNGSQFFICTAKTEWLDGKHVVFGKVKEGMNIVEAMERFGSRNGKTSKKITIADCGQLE

As for `CO[C@@H](C)c1ncc(N2CCOCC2)cc1-c1c2c3cc(cc4c3n1CCO4)-c1csc(n1)C[C@H](NC(=O)[C@H]1[C@H](C)[C@@H]1C)C(=O)N1CCC[C@H](N1)C(=O)OCC(C)(C)C2` (atropisomer, axis not shown; (M)) [Example 68, (1r,2R,3S)-N-[(7S,13S)-(20M)-20-[2-[(1S)-1-methoxyethyl]-5-morpholino-3-pyridyl]-17,17-dimethyl-8,14-dioxo-15,24-dioxa-4-thia-9,21,30,31-tetrazahexacyclo[23.3.1.1^2,5.1^9,13.0^19,27.0^21,26]hentriaconta-1 (29),2,5 (31),19,25,27-hexaen-7-yl]-2,3-dimethyl-cyclopropanecarboxamide], the pIC50 (usually −log10 of the IC50, conventionally taken in molar units) is 7.77 on KRAS G12C-BRAF complex; 9.52 in test [1]; 9.70 in test [2]; 8.41 in test [3]; 8.49 in test [4]; 8.11 in the test on AGS cells (KRAS G12D). In the test with SW620 cells (KRAS G12V), this molecule had a negative logarithm of the IC50 (pIC50) of 9.30.
Take `CO[C@@H](C)c1ncc(N2CCN(C)CC2)cc1-c1c2c3cc(cc4c3n1CC(C)(C)C4)-c1csc(n1)C[C@H](NC(=O)[C@H]1[C@H](C)[C@@H]1C)C(=O)N1CCC[C@H](N1)C(=O)OCC(C)(C)C2` (atropisomer, axis not shown; (M)) [Example 69, (1r,2S,3R)-N-[(7S,13S)-(20M)-20-[2-[(1S)-1-methoxyethyl]-5-(4-methylpiperazin-1-yl)-3-pyridyl]-17,17,23,23-tetramethyl-8,14-dioxo-15-oxa-4-thia-9,21,30,31-tetrazahexacyclo[23.3.1.1^2,5.1^9,13.0^19,27.0^21,26]hentriaconta-1 (28),2,5 (31), 19,25 (29),26-hexaen-7-yl]-2,3-dimethyl-cyclopropanecarboxamide]: the pIC50 against KRAS G12C-BRAF complex is 7.45; in test [1], 8.82; in test [2] it was 8.82; in test [3], 7.95; in test [4], 7.72; in the test with AGS cells (KRAS G12D), 7.12. In the test with SW620 cells (KRAS G12V), the pIC50 was 8.36.
For `CO[C@@H](C)c1ncc(N2CCOCC2)cc1-c1c2c3cc(cc4c3n1CC(F)(F)C4)-c1csc(n1)C[C@H](NC(=O)[C@H]1C[C@@H]1C)C(=O)N1CCC[C@H](N1)C(=O)OCC(C)(C)C2` (atropisomer, axis not shown; (M)) [Example 75, (1S,2S)-N-[(7S,13S)-23,23-difluoro-(20M)-20-[2-[(1S)-1-methoxyethyl]-5-morpholino-3-pyridyl]-17,17-dimethyl-8,14-dioxo-15-oxa-4-thia-9,21,30,31-tetrazahexacyclo[23.3.1.1^2,5.1^9,13.0^19,27.0^21,26]hentriaconta-1 (28),2,5 (31),19,25 (29),26-hexaen-7-yl]-2-methyl-cyclopropanecarboxamide], the pIC50 on KRAS G12C-BRAF complex is 7.53; in test [1] it was 8.59; in test [2] it was 8.31; in test [3], 7.63; in test [4], 7.69; in the test on AGS cells (KRAS G12D), 7.23. This molecule also gave a negative logarithm of the IC50 (pIC50) with SW620 cells (KRAS G12V) of 8.44.
For `CO[C@@H](C)c1ncc(N2CCOCC2)cc1-c1c2c3cc(cc4c3n1CC(F)(F)C4)-c1csc(n1)C[C@H](NC(=O)[C@H]1[C@H](C)[C@@H]1C)C(=O)N1CCC[C@H](N1)C(=O)OCC(C)(C)C2` (atropisomer, axis not shown; (M)) [Example 76, (1r,2S,3R)-N-[(7S,13S)-23,23-difluoro-(20M)-20-[2-[(1S)-1-methoxyethyl]-5-morpholino-3-pyridyl]-17,17-dimethyl-8,14-dioxo-15-oxa-4-thia-9,21,30,31-tetrazahexacyclo[23.3.1.1^2,5.1^9,13.0^19,27.0^21,26]hentriaconta-1 (28),2,5 (31), 19,25 (29),26-hexaen-7-yl]-2,3-dimethyl-cyclopropanecarboxamide], the negative-log IC50 (pIC50) is 8.04 at KRAS G12C-BRAF complex; 9.70 in test [1]; 9.15 in test [2]; 8.41 in test [3]; 8.68 in test [4]; 8.31 in the test on AGS cells (KRAS G12D). Besides, in the test on SW620 cells (KRAS G12V), the pIC50 was 9.52.
Regarding `CO[C@@H](C)c1ncc(N2CCN(C)CC2)cc1-c1c2c3cc(cc4c3n1CC(F)(F)C4)-c1csc(n1)C[C@H](NC(=O)[C@H]1[C@H](C)[C@@H]1C)C(=O)N1CCC[C@H](N1)C(=O)OCC(C)(C)C2` (atropisomer, axis not shown; (M)) [Example 83], the negative-log IC50 (pIC50) is 7.99 on KRAS G12C-BRAF complex; 9.30 in test [1]; 9.05 in test [2]; 8.22 in test [3]; 8.51 in test [4]; 8.04 in the test on AGS cells (KRAS G12D). Besides, in the test on SW620 cells (KRAS G12V), the pIC50 is 9.30.
With `CO[C@@H](C)c1ncc(N2CCN(CC(F)(F)F)CC2)cc1-c1c2c3cc(cc4c3n1CCO4)-c1csc(n1)C[C@H](NC(=O)[C@H]1[C@H](C)[C@@H]1C)C(=O)N1CCC[C@H](N1)C(=O)OCC(C)(C)C2` (atropisomer, axis not shown; (M)) [Example 85, (1r,2S,3R)-N-[(7S,13S)-(20M)-20-[2-[(1S)-1-methoxyethyl]-5-[4-(2,2,2-trifluoroethyl)piperazin-1-yl]-3-pyridyl]-17,17-dimethyl-8,14-dioxo-15,24-dioxa-4-thia-9,21,30,31-tetrazahexacyclo[23.3.1.1^2,5.1^9,13.0^19,27.0^21,26]hentriaconta-1 (28),2,5 (31),19,25 (29),26-hexaen-7-yl]-2,3-dimethyl-cyclopropanecarboxamide], the pIC50 is 7.73 against KRAS G12C-BRAF complex; 9.22 in test [1]; 8.77 in test [2]; 8.25 in test [3]; 8.05 in test [4]; 7.89 with AGS cells (KRAS G12D). In the test on SW620 cells (KRAS G12V), this molecule gave a pIC50 of 9.00.
As to `CO[C@@H](C)c1ncc(N2CCN(CC(F)(F)F)CC2)cc1-c1c2c3cc(cc4c3n1CCC4)-c1csc(n1)C[C@H](NC(=O)[C@H]1[C@H](C)[C@@H]1C)C(=O)N1CCC[C@H](N1)C(=O)OCC(C)(C)C2` (atropisomer, axis not shown; (M)) [Example 86, (1r,2R,3S)-N-[(7S,13S)-(20M)-20-[2-[(1S)-1-methoxyethyl]-5-[4-(2,2,2-trifluoroethyl)piperazin-1-yl]-3-pyridyl]-17,17-dimethyl-8,14-dioxo-15-oxa-4-thia-9,21,30,31-tetrazahexacyclo[23.3.1.1^2,5.1^9,13.0^19,27.0^21,26]hentriaconta-1 (28),2,5 (31),19,25 (29),26-hexaen-7-yl]-2,3-dimethyl-cyclopropanecarboxamide], the pIC50 against KRAS G12C-BRAF complex is 7.75; in test [1] it was 9.10; in test [2] it was 8.74; in test [3], 7.82; in test [4], 7.85; with AGS cells (KRAS G12D) it was 7.34. This molecule also gave a pIC50 with SW620 cells (KRAS G12V) of 8.60.
Regarding `CO[C@@H](C)c1ncc(N2CCN(CC(F)(F)F)CC2)cc1-c1c2c3cc(cc4c3n1CC(F)(F)C4)-c1csc(n1)C[C@H](NC(=O)[C@H]1[C@H](C)[C@@H]1C)C(=O)N1CCC[C@H](N1)C(=O)OCC(C)(C)C2` (atropisomer, axis not shown; (M)) [Example 87, (1r,2S,3R)-N-[(7S,13S)-23,23-difluoro-(20M)-20-[2-[(1S)-1-methoxyethyl]-5-[4-(2,2,2-trifluoroethyl)piperazin-1-yl]-3-pyridyl]-17,17-dimethyl-8,14-dioxo-15-oxa-4-thia-9,21,30,31-tetrazahexacyclo[23.3.1.1^2,5.1^9,13.0^19,27.0^21,26]hentriaconta-1 (28),2,5 (31),19,25 (29),26-hexaen-7-yl]-2,3-dimethyl-cyclopropanecarboxamide], the pIC50 against KRAS G12C-BRAF complex is 7.49; in test [1] it was 8.82; in test [2] it was 8.32; in test [3] it was 7.39; in test [4] it was 7.52; with AGS cells (KRAS G12D), 7.24. Also, in the test with SW620 cells (KRAS G12V), the pIC50 is 8.40.
For `CO[C@@H](C)c1ncc(N2CCOCC2)cc1-c1c2c3cc(cc4c3n1CCO4)-c1csc(n1)C[C@H](NC(=O)[C@H]1C[C@@H]1c1cncnc1)C(=O)N1CCC[C@H](N1)C(=O)OCC(C)(C)C2` (atropisomer, axis not shown; (M)) [Example 88, (1S,2S)-N-[(7S,13S)-(20M)-20-[2-[(1S)-1-methoxyethyl]-5-morpholino-3-pyridyl]-17,17-dimethyl-8,14-dioxo-15,24-dioxa-4-thia-9,21,30,31-tetrazahexacyclo[23.3.1.1^2,5.1^9,13.0^19,27.0^21,26]hentriaconta-1 (28),2,5 (31), 19,25 (29),26-hexaen-7-yl]-2-pyrimidin-5-yl-cyclopropanecarboxamide], the pIC50 on KRAS G12C-BRAF complex was 8.01; in test [1], 9.70; in test [2], 9.52; in test [3], 8.85; in test [4], 8.70; in the test on AGS cells (KRAS G12D), 8.40. This molecule also had a pIC50 with SW620 cells (KRAS G12V) of 9.40.
